{"source": "patent US8338473B2", "about": "“Derivatives of psammaplin A, a method for their synthesis and their uses for the prevention or treatment of cancer” (Centre National de la Recherche Scientifique, priority 2007, dated 2012)", "key": {"[1]": {"tested_on": "U937 acute myeloid leukemia cell line", "assay": "Cell cycle analysis in U937 cells", "format": "cell-based, human", "experimental": "(§1) FIG. 1: a) Cell cycle analysis of U937 cells treated for 30 hrs with the indicated compounds used at 1 and 5 μM; b) Caspase 3 apoptotic assay of the indicated compounds after 24 hrs of treatment in the U937 cells; c) Tubulin acetylation and p21 expression levels at 6 and 16 hrs after treatment with the indicated compounds; total tubulin expression levels are used for equal loading; d) Histone H3 acetylation and K9 H3 methylation expression levels at 6 and 16 hrs after treatment with the indicated compounds; total tubulin expression levels are used for equal loading; e) K9, K14, K18 histone H3 acetylation expression levels at 6 and 16 hrs after treatment with the indicated compounds; total ERKs expression levels are used for equal loading; f) HDAC1 enzymatic assay: IP-HDAC1 is incubated with the indicated inhibitors for 24 Hrs; activity is measured as ^3H-acetyl release; g) HDAC4 enzymatic assay: IP-HDAC4 is incubated with the indicated inhibitors for 24 hrs; activity is measured as ^3H-acetyl release.\n(§2) FIG. 3: a) Cell cycle and apoptosis analysis carried out in U937 cells after 24 hrs with the indicated compounds; values are media of independent triplicates; b) CD11c expression analysis carried out in U937 cells with the indicated compounds; values are media of independent duplicates; c) Tubuline acetylation and p21 expression levels in U937 cells after 24 hrs with the indicated treatments; total ERKs expression levels are used for equal loading; d) acetylation of histone H3 under the conditions indicated in (c).\n(§3) Human leukemia cell line U937 was propagated in RPMI medium supplemented with 10% FBS (Foetal bovine serum; Hyclone) and antibiotics (100 U/mL penicillin, 100 μg/mL streptomycin and 250 ng/mL amphotericin-B). Cells were kept at the constant concentration of 200000 cells per milliliter of culture medium. For AML samples, bone marrow containing 80% to 90% leukemic blasts was purified over Ficoll. This study was approved by the Ethical Committee of the Second University of Naples.\nMS-275 (Schering A G) was dissolved in ethanol and used at 5×10^−6M; valproic acid (VPA; Sigma) was used at 1 mM. All other compounds described were dissolved in DMSO (Sigma-Aldrich) and used at 1 or 5 μM.\n2.5×10^5 cells were collected and resuspended in 500 μL of a hypotonic buffer (0.1% Triton X-100, 0.1% sodium citrate, 50 μg/mL propidium iodide, RNAse A). Cells were incubated in the dark for 30 min. Samples were acquired on a FACS-Calibur flow cytometer using the Cell Quest software (Becton Dickinson) and analysed with standard procedures using the Cell Quest software (Becton Dickinson) and the ModFit LT version 3 Software (Verity). All the experiments were performed 3 times."}, "U937 cells": {"tested_on": "U937 cells", "assay": "Caspase 3 apoptotic assay in U937 cells", "format": "cell-based, human", "settings": "U937, 24 hrs", "experimental": "as §1"}, "p21WAF1/CIP1": {"tested_on": "p21WAF1/CIP1", "assay": "p21 expression, Western blot in U937 cells", "format": "cell-based, human", "experimental": "as §1, §2\nFor the determination of p21^WAF1/CIP1 and p16^INK4 100 μg of total protein extracts were separated on a 15% polyacrylammide gels and blotted. Western blots were shown for p21 (Transduction Laboratories, dilution 1:500), p16 (Santa Cruz) and total ERKs (Santa Cruz) were used to normalise for equal loading. For alpha-tubulin acetylation 25 μg of total protein extracts were separated on a 10% polyacrylamide gels and blotted. […]"}, "[2]": {"tested_on": "breast cancer cells (ZR75.1)", "assay": "Anti-proliferative and apoptogenic action in breast cancer cells", "format": "cell-based", "settings": "data not shown"}, "[3]": {"tested_on": "prostate cancer cells (LnCap)", "assay": "Anti-proliferative and apoptogenic action in prostate cancer cells", "format": "cell-based", "settings": "data not shown"}, "histone H3": {"tested_on": "histone H3", "assay": "Histone H3 acetylation and K9 H3 methylation levels in U937 cells", "format": "cell-based, human", "settings": "U937, 6 and 16 hrs", "experimental": "as §1\nFor the determination of p21^WAF1/CIP1 and p16^INK4 100 μg of total protein extracts were separated on a 15% polyacrylammide gels and blotted. Western blots were shown for p21 (Transduction Laboratories, dilution 1:500), p16 (Santa Cruz) and total ERKs (Santa Cruz) were used to normalise for equal loading. For alpha-tubulin acetylation 25 μg of total protein extracts were separated on a 10% polyacrylamide gels and blotted. Western blots were shown for acetylated alpha-tubulin (Sigma, dilution 1:500) and total ERKs (Santa Cruz) or total tubulin (Sigma) were used to normalise for equal loading."}, "HDAC1": {"target": "HDAC1 (Homo sapiens, UniProt Q13547)", "sequence (Q13547 whole entry, species assumed)": "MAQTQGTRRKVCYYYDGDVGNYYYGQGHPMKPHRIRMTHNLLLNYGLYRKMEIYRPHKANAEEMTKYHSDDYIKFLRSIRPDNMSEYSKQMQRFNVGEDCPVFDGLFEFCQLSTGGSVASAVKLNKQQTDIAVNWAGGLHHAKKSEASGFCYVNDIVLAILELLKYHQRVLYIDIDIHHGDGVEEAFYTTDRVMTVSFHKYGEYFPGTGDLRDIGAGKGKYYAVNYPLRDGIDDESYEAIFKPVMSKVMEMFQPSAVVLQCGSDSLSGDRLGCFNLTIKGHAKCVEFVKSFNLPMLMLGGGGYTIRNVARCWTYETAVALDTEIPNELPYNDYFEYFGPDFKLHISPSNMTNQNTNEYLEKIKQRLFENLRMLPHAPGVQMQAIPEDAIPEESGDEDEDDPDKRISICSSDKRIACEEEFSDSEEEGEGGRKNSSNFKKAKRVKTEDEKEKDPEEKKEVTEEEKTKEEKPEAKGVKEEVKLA", "assay": "HDAC1 enzymatic assay (IP-HDAC1, 3H-acetyl release)", "format": "biochemical", "settings": "IP-HDAC1 incubated with inhibitor 24 hrs", "experimental": "as §1"}, "HDAC4": {"target": "HDAC4 (Homo sapiens, UniProt P56524)", "sequence (P56524 whole entry, species assumed)": "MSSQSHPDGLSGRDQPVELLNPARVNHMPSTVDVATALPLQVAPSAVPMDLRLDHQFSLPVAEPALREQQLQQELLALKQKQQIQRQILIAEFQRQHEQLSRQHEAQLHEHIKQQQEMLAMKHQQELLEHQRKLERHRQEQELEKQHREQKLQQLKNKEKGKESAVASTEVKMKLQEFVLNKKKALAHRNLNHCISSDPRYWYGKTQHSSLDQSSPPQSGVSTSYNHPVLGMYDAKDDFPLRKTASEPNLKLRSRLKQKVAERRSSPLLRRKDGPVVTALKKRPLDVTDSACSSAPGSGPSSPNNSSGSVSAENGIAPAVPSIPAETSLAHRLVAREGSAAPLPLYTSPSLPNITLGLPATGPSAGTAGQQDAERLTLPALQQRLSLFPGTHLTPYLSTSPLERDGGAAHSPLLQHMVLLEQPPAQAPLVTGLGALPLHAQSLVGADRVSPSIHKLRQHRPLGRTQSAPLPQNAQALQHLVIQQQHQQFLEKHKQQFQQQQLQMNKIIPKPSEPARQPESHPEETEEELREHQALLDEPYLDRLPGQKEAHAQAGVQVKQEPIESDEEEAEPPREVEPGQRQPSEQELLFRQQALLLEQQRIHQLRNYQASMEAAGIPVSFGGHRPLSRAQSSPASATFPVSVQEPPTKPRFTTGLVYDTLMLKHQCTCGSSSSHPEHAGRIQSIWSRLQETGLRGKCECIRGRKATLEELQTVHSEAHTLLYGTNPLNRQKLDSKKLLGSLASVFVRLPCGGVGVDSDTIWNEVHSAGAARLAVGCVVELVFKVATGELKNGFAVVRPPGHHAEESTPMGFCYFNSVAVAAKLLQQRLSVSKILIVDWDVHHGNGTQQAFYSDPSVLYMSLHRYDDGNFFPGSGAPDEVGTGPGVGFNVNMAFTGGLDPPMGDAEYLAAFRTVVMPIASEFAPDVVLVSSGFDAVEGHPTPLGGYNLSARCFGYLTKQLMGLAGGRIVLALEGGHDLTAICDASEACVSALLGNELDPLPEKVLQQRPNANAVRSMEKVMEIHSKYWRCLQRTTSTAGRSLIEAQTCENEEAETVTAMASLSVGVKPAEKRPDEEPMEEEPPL", "sequence (O15379 whole entry partner, species assumed)": "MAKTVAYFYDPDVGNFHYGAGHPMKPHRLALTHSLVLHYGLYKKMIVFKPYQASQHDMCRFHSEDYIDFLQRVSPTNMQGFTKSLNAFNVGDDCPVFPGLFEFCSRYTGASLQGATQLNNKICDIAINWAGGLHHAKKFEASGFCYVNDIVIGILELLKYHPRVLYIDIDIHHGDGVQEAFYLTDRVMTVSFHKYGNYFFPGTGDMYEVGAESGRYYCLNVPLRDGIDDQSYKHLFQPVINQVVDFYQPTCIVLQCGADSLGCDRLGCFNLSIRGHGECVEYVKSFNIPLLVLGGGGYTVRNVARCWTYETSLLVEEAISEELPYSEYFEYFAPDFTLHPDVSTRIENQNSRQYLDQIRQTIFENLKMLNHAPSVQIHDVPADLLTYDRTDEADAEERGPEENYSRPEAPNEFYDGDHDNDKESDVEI", "assay": "HDAC4 enzymatic assay (IP-HDAC4, 3H-acetyl release)", "format": "biochemical", "settings": "IP-HDAC4 incubated with inhibitor 24 hrs", "experimental": "as §1"}, "HDAC6": {"target": "T1, HDAC6 (Homo sapiens, UniProt Q9UBN7)", "T1 construct": "Tubuline acetylation and p21 expression levels in U937 cells after 24 hrs with the indicated treatments; endogenous in cells; host or cells: U937", "T1 sequence (Q9UBN7 whole entry)": "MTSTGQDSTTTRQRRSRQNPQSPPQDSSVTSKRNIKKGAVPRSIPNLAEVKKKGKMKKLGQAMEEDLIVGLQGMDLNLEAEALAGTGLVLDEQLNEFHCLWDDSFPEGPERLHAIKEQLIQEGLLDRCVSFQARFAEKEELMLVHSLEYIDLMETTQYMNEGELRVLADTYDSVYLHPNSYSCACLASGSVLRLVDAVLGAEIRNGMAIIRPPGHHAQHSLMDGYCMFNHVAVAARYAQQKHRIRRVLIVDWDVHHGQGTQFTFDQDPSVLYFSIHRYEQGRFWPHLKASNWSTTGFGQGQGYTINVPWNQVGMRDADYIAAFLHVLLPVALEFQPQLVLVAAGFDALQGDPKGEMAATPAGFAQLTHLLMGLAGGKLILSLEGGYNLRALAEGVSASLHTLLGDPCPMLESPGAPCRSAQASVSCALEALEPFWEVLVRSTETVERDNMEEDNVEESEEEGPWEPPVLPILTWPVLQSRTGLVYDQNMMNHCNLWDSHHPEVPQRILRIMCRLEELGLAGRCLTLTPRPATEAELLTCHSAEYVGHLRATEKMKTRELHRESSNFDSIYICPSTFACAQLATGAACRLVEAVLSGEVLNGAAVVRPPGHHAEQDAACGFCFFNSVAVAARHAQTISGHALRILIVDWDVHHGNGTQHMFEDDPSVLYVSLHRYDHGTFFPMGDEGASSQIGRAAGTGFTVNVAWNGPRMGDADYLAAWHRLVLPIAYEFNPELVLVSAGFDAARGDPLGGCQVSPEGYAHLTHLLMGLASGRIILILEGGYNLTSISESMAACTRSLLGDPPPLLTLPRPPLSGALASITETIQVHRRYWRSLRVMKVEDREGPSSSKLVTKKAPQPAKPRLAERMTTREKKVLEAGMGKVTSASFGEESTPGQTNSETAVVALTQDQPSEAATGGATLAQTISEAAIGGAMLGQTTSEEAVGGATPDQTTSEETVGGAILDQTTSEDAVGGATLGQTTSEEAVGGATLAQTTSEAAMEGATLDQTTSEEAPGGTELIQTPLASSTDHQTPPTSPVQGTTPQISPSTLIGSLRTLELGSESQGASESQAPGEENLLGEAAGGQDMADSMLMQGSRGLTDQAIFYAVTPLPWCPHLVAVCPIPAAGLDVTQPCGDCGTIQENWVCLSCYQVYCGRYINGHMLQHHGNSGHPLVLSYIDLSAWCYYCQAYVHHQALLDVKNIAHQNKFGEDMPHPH", "assay": "Alpha tubulin acetylation in U937 cells (HDAC6 readout)", "format": "cell-based", "settings": "U937, 6 and 16 hrs", "experimental": "as §1, with “release. […]” for “release.”"}, "p16INK4a promoter": {"tested_on": "p16INK4a promoter", "assay": "Methylation specific PCR for the p16 gene", "format": "cell-based", "settings": "24 hrs", "experimental": "FIG. 2: a) Methylation specific PCR for the RARβ gene after 16 and 24 hrs of treatment with the indicated compounds; b) Methylation specific PCR for the p16 gene after 24 hrs of the indicated treatments. Samples are representative of real duplicates; c) p16 expression levels in U937 cells after 24 hrs with the indicated treatments; d) DNMT enzymatic in vitro assay carried out with 1.5 and 50 μM of the indicated compounds;\nDNA extraction was performed as described below. Bisulfite treatment and PCR for the determination of p16 methylation was performed as described from the suppliers (Chemicon)."}, "[4]": {"tested_on": "ex vivo AML patient blasts", "assay": "Cell cycle and apoptosis in ex vivo AML patient blasts", "format": "cell-based, human", "settings": "for cell cycle arrest and apoptosis (caspase 3 activation): 4 ex vivo cultures, AML patients #102, #108, #109, #116", "experimental": "FIG. 4: a) Cell cycle analyses and apoptosis carried out in ex vivo samples from AML patients identified with numbers; b) Cell cycle analysis, apoptosis and histone H3 acetylation levels of #116 AML cells after 20 hrs is of the indicated treatments.\nas §3"}, "[5]": {"tested_on": "histone deacetylases (HDAC)", "settings": "in vitro cell-free enzyme assay; read-out: IC50, inhibition of histone deacetylases (HDAC); cited from earlier work"}, "HDAC": {"tested_on": "HDAC", "settings": "cited from earlier work"}, "[6]": {"assay": "Earlier tolerability tests in mice", "format": "in vivo", "settings": "30 mg/kg", "text": "There were 10 animals in each group."}, "[7]": {"tested_on": "HCT-116 colon carcinoma cells xenografted in immunoincompetent mice", "settings": "for Normalised tumour weight: mean of n = 10"}, "A-375 cells": {"tested_on": "A-375 cells", "assay": "MTT cytotoxicity assay, A-375", "settings": "read-out: IC50 values, MTT cytotoxicity assay; A-375, 48 h"}, "DU-145 cells": {"tested_on": "DU-145 cells", "assay": "MTT cytotoxicity assay, DU-145", "settings": "read-out: IC50 values, MTT cytotoxicity assay; DU-145, 48 h"}, "HCT-116 cells": {"tested_on": "HCT-116 cells", "assay": "MTT cytotoxicity assay, HCT-116", "settings": "read-out: IC50 values, MTT cytotoxicity assay; HCT-116, 48 h"}, "[8]": {"settings": "day 1, 20 mg/kg i.p. every second day"}, "[9]": {"settings": "day 4, 20 mg/kg i.p. every second day"}, "[10]": {"settings": "day 12, 20 mg/kg i.p. every second day"}, "[11]": {"settings": "day 17, 20 mg/kg i.p. every second day"}, "[12]": {"settings": "day 22, 20 mg/kg i.p. every second day"}}, "note": "Read-outs that look alike come from different tables or passages of the source.", "data": [{"compound": "O=C(NCCSSCCNC(=O)/C(Cc1ccc(O)c(Br)c1)=N/O)/C(Cc1ccc(O)c(Br)c1)=N/O", "note": "[UVI5000, Psammaplin A]", "values": [{"measurement": "cell cycle arrest, position of the block", "setting": "[1]; U937, 30 hrs, 1 and 5 μM", "value": "arrests in the S and G2 phases"}, {"measurement": "apoptogenic effect (caspase 3)", "setting": "U937 cells", "value": "strongest apoptogenic effect"}, {"measurement": "expression of p21WAF1/CIP1", "setting": "p21WAF1/CIP1; U937, 6 and 16 hrs", "value": "dramatically increased"}, {"measurement": "anti-proliferative and apoptogenic action", "setting": "[2]", "value": "confirmed"}, {"measurement": "anti-proliferative and apoptogenic action", "setting": "[3]", "value": "confirmed"}, {"measurement": "global histone H3 acetylation", "setting": "histone H3", "value": "moderate time-dependent increase"}, {"measurement": "HDAC1 inhibition", "setting": "HDAC1", "value": "only a weak inhibitor of HDAC1"}, {"measurement": "HDAC4 deacetylase activity inhibition", "setting": "HDAC4", "value": "only moderate activity"}, {"measurement": "inhibition of HDAC6 (alpha tubulin acetylation)", "setting": "HDAC6", "value": "inhibited the activity of HDAC6"}, {"measurement": "unmethylated p16INK4a promoter DNA (MSP)", "setting": "p16INK4a promoter", "value": "displayed a similar activity"}, {"measurement": "cell cycle arrest and apoptosis (caspase 3 activation)", "setting": "[4]", "value": "induced cell cycle arrest and apoptosis"}, {"measurement": "IC50", "setting": "[5]", "value": 4.2, "unit": "nM"}, {"measurement": "concentration to inhibit HDAC in cell-based assay relative to enzyme-based assay", "setting": "HDAC", "value": 1800, "unit": "times"}]}, {"compound": "SAHA", "values": [{"measurement": "mortality", "setting": "[6]", "value": 60, "unit": "%"}, {"measurement": "tolerability", "setting": "[6]", "value": "not tolerable"}, {"measurement": "unmethylated p16INK4a promoter DNA (MSP)", "setting": "p16INK4a promoter", "value": "inactive"}, {"measurement": "cell cycle arrest and apoptosis (caspase 3 activation)", "setting": "[4]", "value": "activities similar to UVI5008"}, {"measurement": "Normalised tumour weight", "setting": "[7]; [8]", "value": "100 ± 24", "unit": "mg"}, {"measurement": "Normalised tumour weight", "setting": "[7]; [9]", "value": "166.69 ± 56.8", "unit": "mg"}, {"measurement": "Normalised tumour weight", "setting": "[7]; [10]", "value": "892.95 ± 267.6", "unit": "mg"}, {"measurement": "Normalised tumour weight", "setting": "[7]; [11]", "value": "1915.59 ± 409.5", "unit": "mg"}, {"measurement": "Normalised tumour weight", "setting": "[7]; [12]", "value": "2952.8 ± 636.4", "unit": "mg"}]}, {"compound": "Nc1ncn([C@@H]2O[C@H](CO)[C@@H](O)[C@H]2O)c(=O)n1", "note": "[5-azacytidine]", "values": [{"measurement": "unmethylated p16INK4a promoter DNA (MSP)", "setting": "p16INK4a promoter", "value": "very similar to that seen with UVI5008"}]}, {"compound": "CSCCNC(=O)/C(Cc1c[nH]c2ccc(Br)cc12)=N/O", "note": "[UVI5020]", "values": [{"measurement": "cell cycle arrest and apoptosis, relative to UVI5008 (FIG. 3a)", "setting": "[1]; U937, 24 hrs", "value": "inactive at inducing apoptosis and G2M arrest but it induces a G1 arrest"}, {"measurement": "p21WAF1/CIP1 induction (FIG. 3c)", "setting": "p21WAF1/CIP1; U937, 24 hrs", "value": "enhanced expression"}, {"measurement": "apoptotic activity", "setting": "[4]; 5 μM, two samples of patient blasts", "value": "only a weak induction of apoptosis"}]}, {"compound": "Nc1ccccc1NC(=O)c1ccc(CNC(=O)OCc2cccnc2)cc1", "note": "[MS-275]", "values": [{"measurement": "cell cycle arrest and apoptosis (caspase 3 activation)", "setting": "[4]", "value": "activities similar to UVI5008"}, {"measurement": "Percent Growth Inhibition after 22 days", "setting": "[7]; 20 mg/kg i.p. every second day", "value": "35 ± 12", "unit": "%"}, {"measurement": "Normalised tumour weight", "setting": "[7]; [8]", "value": "100 ± 25", "unit": "mg"}, {"measurement": "Normalised tumour weight", "setting": "[7]; [9]", "value": "202.6 ± 81.5", "unit": "mg"}, {"measurement": "Normalised tumour weight", "setting": "[7]; [10]", "value": "746.65 ± 185", "unit": "mg"}, {"measurement": "Normalised tumour weight", "setting": "[7]; [11]", "value": "1360.61 ± 288", "unit": "mg"}, {"measurement": "Normalised tumour weight", "setting": "[7]; [12]", "value": "2423.09 ± 445.5", "unit": "mg"}, {"measurement": "IC50", "setting": "A-375 cells", "value": "2400 ± 700", "unit": "nM"}, {"measurement": "IC50", "setting": "DU-145 cells", "value": "8200 ± 600", "unit": "nM"}, {"measurement": "IC50", "setting": "HCT-116 cells", "value": "2300 ± 300", "unit": "nM"}]}]}
